# Results taken from PMC9161616, “A first-in-human phase 1/2 study of FGF401 and combination of FGF401 with spartalizumab in patients with hepatocellular carcinoma or biomarker-selected solid tumors” (Journal of Experimental & Clinical Cancer Research : CR, 2022).
# “Also recorded” adds a separate entry of the source.
# Assays:
# FGF19-FGFR4 signaling = assay: Blood-based pharmacodynamic biomarkers (C4, total bile acids, FGF19, cholesterol); format: in vivo, human
# Method: An immunohistochemistry (IHC) assay to detect FGF19 was used retrospectively on remnant samples and the association of FGF19 expression levels with best change in sum of diameters (SOD) for RECIST v1.1 in the single-agent was evaluated. […] FGF19 was quantified using a capture-ELISA assay from R&D System, Cat. nr. DF1900, with a LLOQ of 27.2 pg/mL and ULOQ of 1096.3 pg/mL. C4: 7α-Hydroxy-4-cholesten-3-one was determined using an LC-MS/MS method. The concentration of total bile acids were measured using the colorimetric diazyme’s enzymatic total bile acids assay.
# [1] = tested on: CYP7A1 and DUSP6 transcript levels in tumor biopsies; assay: Tumor biopsy RNAseq pharmacodynamics; format: in vivo, human
# Method: Additionally, exploratory biomarker endpoints to assess FGF19-FGFR4 signaling inhibition by FGF401 included temporal profiling of C4, FGF19, total bile acid and total cholesterol levels in blood, and CYP7A1 and DUSP6 transcript levels in tumor biopsies. An immunohistochemistry (IHC) assay to detect FGF19 was used retrospectively on remnant samples and the association of FGF19 expression levels with best change in sum of diameters (SOD) for RECIST v1.1 in the single-agent was evaluated.
# For RNAseq based studies, extracted total RNA was depleted from ribosomal RNA using RNAseH. The rRNA-depleted sample was then prepared for sequencing using the TruSeq RNA v.2 Library Preparation kit (Illumina). After pooling the captured library using unique adapter index sequences and applying the pool to a sequencing flow cell, they were sequenced using Illumina v.4 chemistry and paired-end 100-bp reads. Sequence data were aligned to the reference human genome (build hg19) using STAR v.2.4.0e. Mapped reads were then used to quantify transcripts with HTSeq v.0.6.1p1 [28] and RefSeq GRCh38 v.82 gene annotation. Gene expression data were normalized using the trimmed mean of M-value normalization as implemented in the edgeR – Bioconductor package v.3.20.9 [29].
# [2] = tested on: HCC and gastric cancer cell lines expressing FGFR4, KLB and FGF19; conditions: excellent selectivity over non-sensitive tumor models; cited from earlier work
# [3] = most patients across the FGF401 dose levels
# [4] = most on-treatment biopsies obtained at C1D8
compound,measurement,setting,value
"COCCNc1cc(NC(=O)N2CCCc3cc(CN4CCN(C)CC4=O)c(C=O)nc32)ncc1C#N [FGF401, roblitinib]",dose-response analyses with the pharmacodynamic biomarkers,FGF19-FGFR4 signaling; all doses tested,did not identify any associations; also recorded: without a clear dose response
same,change in C4 level,FGF19-FGFR4 signaling; [3],Increase; also recorded: treatment-induced elevation
same,change in total bile acid level,FGF19-FGFR4 signaling; [3],Increase; also recorded: treatment-induced elevation
same,change in circulating FGF19,FGF19-FGFR4 signaling; single-agent arm,Increase
same,change in total cholesterol,FGF19-FGFR4 signaling; single-agent arm,decrease
same,CYP7A1 transcript in on-treatment versus pretreatment biopsies,[1]; [4],upregulation
same,DUSP6 transcript in on-treatment versus pretreatment biopsies,[1]; [4],downregulation
same,changes in immune infiltration after FGF401 treatment,[1]; signatures summarized with GSVA,did not observe significant changes
same,growth of cell lines,[2],inhibits growth
